Where two headings read alike, the source gives them in different places.
Legend:
[1] = tested on: TNF-α mRNA in LPS-stimulated RAW 264.7 macrophages; assay: TNF-α gene expression (qRT-PCR) in LPS-induced RAW 264.7 cells; assay type: cell-based; conditions: LPS (1 μg/mL)-stimulated RAW 264.7, sub IC50 concentration, relative to LPS control, referenced to Actb
Experimental: (§1) Evaluation of pro-inflammatory cytokines (TNF- α and IL-6) using LPS-induced RAW 264.7 cells. RAW 264.7 macrophage cells were procured from the American Type Culture Collection (Manassas, VA, USA) and grown as previously described. In vitro Toxicology Assay Kit, MTT Based (Sigma-Aldrich, Saint Louis, Missouri, USA) was employed to establish cell viability at concentrations (1–250 μM). Treatment of RAW 264.7 cells and determination of the inhibitory effect of the active compounds at sub IC50 values on TNF- α and IL-6 gene expression in RAW264.7 cells were performed as mentioned before using LPs treated cells as control.

TNF-α: TNFR2 = target: T1, TNF-α: TNFR2 (Homo sapiens, UniProt P01375); assay: TNFR2: TNF-α [Biotinylated] inhibitor screening assay; assay type: binding; conditions: in vitro kit, mean ± SD
T1 construct: purchased BPS bioscience
T1 sequence (P01375 77-233 limits assumed): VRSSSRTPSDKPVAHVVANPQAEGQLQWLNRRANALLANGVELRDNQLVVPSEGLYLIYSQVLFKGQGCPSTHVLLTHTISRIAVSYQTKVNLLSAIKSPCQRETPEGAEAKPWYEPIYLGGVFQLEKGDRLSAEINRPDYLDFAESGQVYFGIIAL
From the text: In vitro TNF-α [Biotinylated] inhibition assay. TNFR2: TNF-α [Biotinylated] inhibitor screening assay kit (BPS bioscience, Cornerstone Court W, Ste B San Diego, CA 92121) was used to screen for the in vitro inhibition of TNF-α binding to tumor necrosis factor receptor 2 (TNFR2) following the manufacturer’s protocol.

[2] = tested on: IL-6 mRNA in LPS-stimulated RAW 264.7 macrophages; assay: IL-6 gene expression (qRT-PCR) in LPS-induced RAW 264.7 cells; assay type: cell-based; conditions: LPS (1 μg/mL)-stimulated RAW 264.7, sub IC50 concentration, relative to LPS control, referenced to Actb
Experimental: as §1

[3] = target: ACE-2: SARS-CoV-2 Spike (RBD) (Homo sapiens, UniProt Q9BYF1); assay: ACE-2: Spike RBD (SARS-CoV-2) inhibitor screening colorimetric assay; assay type: binding, human; SARS-CoV-2; conditions: in vitro colorimetric kit; mean ± SD; read-out: IC50, ACE2 spike RBD (SARS-CoV-2) inhibitory effect
Sequence of ACE-2: SARS-CoV-2 Spike (RBD) (Q9BYF1 18-740): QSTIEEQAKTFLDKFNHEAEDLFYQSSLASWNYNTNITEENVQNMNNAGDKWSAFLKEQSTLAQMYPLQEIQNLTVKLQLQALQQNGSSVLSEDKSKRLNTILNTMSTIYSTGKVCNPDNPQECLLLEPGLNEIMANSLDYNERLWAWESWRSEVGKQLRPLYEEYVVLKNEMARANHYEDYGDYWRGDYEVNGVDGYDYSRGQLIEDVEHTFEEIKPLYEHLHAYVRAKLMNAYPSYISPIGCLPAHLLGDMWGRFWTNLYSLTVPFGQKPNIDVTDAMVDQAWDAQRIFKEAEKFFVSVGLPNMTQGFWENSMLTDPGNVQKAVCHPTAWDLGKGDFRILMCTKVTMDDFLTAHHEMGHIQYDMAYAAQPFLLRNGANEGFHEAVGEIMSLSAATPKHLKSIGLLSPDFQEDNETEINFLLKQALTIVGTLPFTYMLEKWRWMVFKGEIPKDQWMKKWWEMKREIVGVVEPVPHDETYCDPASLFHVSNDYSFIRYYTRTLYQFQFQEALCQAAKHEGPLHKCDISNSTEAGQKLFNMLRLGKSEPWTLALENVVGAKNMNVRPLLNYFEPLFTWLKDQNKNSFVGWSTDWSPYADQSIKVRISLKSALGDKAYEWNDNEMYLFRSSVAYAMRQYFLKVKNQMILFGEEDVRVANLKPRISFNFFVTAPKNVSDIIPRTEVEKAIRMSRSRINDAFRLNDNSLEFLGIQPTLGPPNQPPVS

[4] = tested on: Human lung microvascular endothelial cells (HLMEC); assay: MTT cell viability assay in HLMEC; assay type: cell-based; conditions: 48 h, read-out: IC50, viability of HLMEC
Experimental: Human lung microvascular endothelial cells (HLMEC) were acquired from Lonza (Hayward, CA, USA). The cells were seeded in an endothelial cell growth medium (EGM-2 MV) (Lonza, Hayward, CA, USA) at 37°C and 5% CO2. Then, at 5 to 7 passages, the cells were plated in 100 μL/well EGM-2 MV medium in collagen-covered 96-well plates. The cells were grown for 3–5 days to reach the confluent layer. Cell viability was valued by the MTT Cell Growth Assay Kit (Sigma-Aldrich, Steinheim, Germany) using untreated cells as control.
(§2) An experimental model of HLMEC was applied to study the effects of the endophytic compounds 1–4 on ACE-2 protein expression. Preceding this analysis, the cytotoxic effect of compounds 1–4 was determined on HLMEC using an MTT assay. HLMEC were treated with different dilutions of the test samples (0.39–100 μM) for 48 h. Compounds 1–4 being nontoxic (IC50>100 μM, Table 6).

[5] = tested on: ACE-2 protein expression in HLMEC; assay: Western blot of ACE-2 protein expression in HLMEC; assay type: cell-based, human; conditions: 25 μM, 48 h, western blot vs untreated cells
Experimental: HLMEC cells were seeded, cultured, and incubated with compounds 1–4 for 48h. RIPA buffer (Cell Signaling, Danvers, MA) was employed to obtain the entire-cell protein lysates. Bradford method was used to determine the concentration of protein. Western blot assay was done as previously stated using untreated cells as control. Anti-ACE-2 antibody [EPR24705-45] ab272500 (Abcam, Cambridge, UK) was used.
as §2

[6] = Solubility observation of the isolated compound; assay type: physicochemical; conditions: observation on the isolated oil
From the text: In addition, there were complex multiplet overlapping signals for several hydrogen protons characteristic for different methylene groups laying in the same chemical environment (H- 5’/5’’, H-6’/6’’, H-11’/11’’ and 12’/12’’). […] In addition to two carbonyl carbons, one of which (C-1’/1’’ δC 167.7) is upfield due to its attachment to the aromatic ring while the other is downfield (C-9’/9’’, δC 174.0). The downfield shift of the two-methylene groups 3’/3’’ (δC, 68.2) and 7’/7’’ (δC 66.7) confirm their attachment to O-C = O. Moreover, the structure contained only one methine group at δC 38.7 (CH- 4’/4’’) and two methyl groups CH3-13’/13’’ and 14’/14’’ at δC 10.9 and 14.0, respectively. Furthermore, there were another five CH2 groups at δC 30.4, 23.7, 34.4, 25.0, and 29.1 for C-5’, 6’, 10’,11’, and 12’, respectively. H-H-COSY (Fig 1) established the correlation between the aromatic ring’s protons and that between the side chains’ protons. Additionally, HMBC data (Fig 1) confirmed the substitution of the aromatic ring through the correlation from H-2/5 ([…]) to C-3/4 (δC 130.9) and that between H-3/4 (δC 7.54) and C-2/5 (δC 128.8). The connectivity of the side chain to the aromatic ring at C-1 and C-6 was established through the correlation from H-2/5 (δH 7.72) to C-1`/1” (δC 167.7). […]

[7] = read-out: IC50, TNF-α: TNFR2 inhibitory effect

SMILES: COc1cc(O)c2c(=O)oc3cc(O)cc(C)c3c2c1 [Compound 4, alternariol-5-O-methyl ether]
- TNF-α mRNA expression fold change [1]: 0.28 ± 0.02
- IC50 (TNF-α: TNFR2; IC50, TNF-α: TNFR2 inhibitory effect): 4.97 ± 0.28 µM
- IL-6 mRNA expression fold change [2]: 0.14 ± 0.01
- IC50 [3]: 11.7 ± 0.34 µM
- IC50 [4]: > 100 µM
- ACE2% inhibition (ACE2 protein expression) [5]: 50.85 ± 4.34%

SMILES: COc1cc(O)c2c(=O)oc3c(c2c1)C(C)CC3=O (centres unmarked) [Compound 3, 1-deoxyrubralactone]
- IC50 [3]: 12.5 ± 0.46 µM
- IC50 [4]: > 100 µM
- ACE2% inhibition (ACE2 protein expression) [5]: 29.91 ± 4.26 %

SMILES: CC1CCC2C(C1)c1ccccc1C1CCCCC(C)N12 (centres unmarked) [Compound 1, altenuline]
- IC50 (TNF-α: TNFR2; [7]): 8.7 ± 0.34 µM
- IC50 [3]: 15.5 ± 0.45 µM
- IC50 [4]: > 100 µM
- ACE2% inhibition (ACE2 protein expression) [5]: 49.65 ± 3.06 %

SMILES: CCCCC(=O)OCCCC(C)COC(=O)c1ccccc1C(=O)OCC(C)CCCOC(=O)CCCC (centres unmarked) [Compound 2, phthalic acid bis (7’/7’’ pentyloxy) isohexyl ester]
- TNF-α mRNA expression fold change [1]: 0.45 ± 0.07
- IC50 (TNF-α: TNFR2; [7]): 5.4 ± 0.33 µM
- solubility in water [6]: insoluble in water
- IL-6 mRNA expression fold change [2]: 0.30 ± 0.02
- IC50 [3]: 10.4 ± 0.25 µM
- IC50 [4]: > 100 µM
- ACE2% inhibition (ACE2 protein expression) [5]: 70.51± 4.80%

— paper PMC11760621, “Secondary metabolites of Alternaria alternate appraisal of their SARS-CoV-2 inhibitory and anti-inflammatory potentials” (PLOS ONE, 2025)
